From patent publication US6413909B1, “Herbicide composition for control of rye grass and vetch in preplant burndown” (priority 2001, dated 2002)

Assays:
[1] = tested on: broadleaf weeds and grasses typically found in preplant corn fields; test: Field test of preplant burndown effectiveness (Example 1); format: in vivo; conditions: average of ratings 6 and 8 weeks after treatment
Description: The composition of the present invention was tested for percent burndown effectiveness, compared to pretreatment, in fields containing broadleaf weeds and grasses typically found in preplant corn fields, including Texas panicum, fall panicum, signalgrass, goosegrass, barnyardgrass, yellow & green foxtail, pigweed, wild mustard, ryegrass, vetch, volunteer wheat, Florida pusley, smartweed, and cutleaf evening primrose.
The composition of the present invention consisted of about 57% ametryn, 25% atrazine, and 18% paraquat, by weight, and was applied at a rate of about 2 lbs. per acre. On separate fields, for comparison, ametryn alone, paraquat alone, atrazine alone, and ametryn plus gramoxone were applied. The composition of the present invention was formulated by suspending 2 lbs. of the composition of the present invention per 20 gallons of water. Herbicides were rated for burndown effectiveness 6 and 8 weeks after treatment. The two resulting values were averaged.

humans and other mammals = conditions: result in words; cited from earlier work
vetch = conditions: herbicide alone; cited from earlier work

Row | SMILES | Percent Burndown ([1]; paraquat 0.35 lb active ingredient/acre) [%] | Percent Burndown ([1]; paraquat 0.70 lb active ingredient/acre) [%] | toxicity to humans (humans and other mammals) | Percent Burndown ([1]; ametryn 1.14 lb active ingredient/acre, compared to pretreatment) [%] | effective against vetch (vetch) [%]
1 | C[n+]1ccc(-c2cc[n+](C)cc2)cc1 [paraquat, 1,1-dimethyl-4,4-bipyridinium] | 30 | 50 | high toxicity to humans and other mammals |  | 
2 | CCNc1nc(NC(C)C)nc(SC)n1 [ametryn, 2-(ethylamino)-4-isopropylamino-6-methylthio-s-triazine] |  |  | minimal human toxicity | 30 | 100
